{"source": "patent US11793755B2", "about": "“Pharmaceutical composition for intraarticular delivery” (TAIWAN LIPOSOME CO., LTD., priority 2012, dated 2023)", "key": {"[1]": {"test_system": "arthritis induced with bovine type II collagen", "assay": "Single IA injection of DSP sustained release compositions in arthritic rats (Example 3)", "format": "in vivo, Lewis rats", "description": "Sixteen female rats, aged 8 weeks, were used in the study. The average body weight of the rats was from about 180 to about 200 grams.\nTo induce arthritis, each rat was immunized with 200 μg of bovine type II collagen (4 mg/ml stocked in 10 mM acetic acid, commercially available from Elastin Products, Owensville, USA) emulsified in Freund's incomplete adjuvant (commercially available from Sigma Chemical Co., USA) on day 0 and then again on day 7.\nThe rats were randomized into the following 4 study groups:\nGroup 1: 4 rats each received 100 μl of saline per paw (labeled “Saline Control in FIGS. 1-8)\nGroup 3: 4 rats each received 100 μl of the sustained release composition 1 per paw, wherein the concentration of DSP is 1 mg/ml (labeled “TLC399_1 mg/mg in FIGS. 1-4 and “TLC399_I 4 mg/ml in FIGS. 5-8).\nGroup 4: 4 rats each received 100 μl of the sustained release composition 2 per paw, wherein the concentration of DSP is 1.4 mg/ml (labeled “TLC399_1.4 mg/mg in FIGS. 1-4 and “TLC399_II 1.4 mg/ml in FIGS. 5-8).\nThe control or the DSP formulation was administered to both hind paws of the rat as a once only IA injection on day 19."}, "[2]": {"test_system": "arthritis induced with bovine type II collagen", "assay": "Four daily IA injections of DSP sustained release compositions in arthritic rats (Example 4)", "format": "in vivo, Lewis rats", "conditions": "four daily IA injections day 26 to day 29", "from_the_text": "(§1) During the 14-day study period, the rats were examined 3 times a week for the following outcomes: • Body weight loss, which is one of the parameters for evaluating the severity of arthritis. • Clinical Visual Arthritis Score, which is a visual score which correlates with the severity of arthritis. It was graded using an articular index of each paw, ranging from 0 to 4 (0=no edema or erythema on the foot pad; 1=slight edema and erythema on the foot pad; 2=mild edema and erythema on the foot pad; 3=moderate edema and erythema on the entire foot pad and the ankle; 4=severe edema and joint rigidity of the ankle, foot and digits). The Clinical Visual Arthritis Score for each rat was the sum of the articular index of both hind paws, with a maximum score of 8. • Hind paw volume and swelling. The hind paw volume was measured by UGO Plethysmometer 7149 measuring system. The final volume data was normalized with the average body weight (ml/kg) and edema was defined as the increase in paw volume on the day of measurement relative to day 0."}, "[3]": {"test_system": "collagen-induced arthritis", "assay": "Collagen-induced arthritis model, indomethacin sustained release composition (Example 6)", "format": "in vivo, Lewis rats", "from_the_text": "as §1\nAn in vivo evaluation of the effect of the indomethacin sustained release composition on arthritis was performed using 18 female Lewis rats (BioLASCO Taiwan Co, Ltd., Taiwan).\nThe arthritis treatments were initiated at the peak of the clinical visual arthritis score, which occurred at day 19. Eighteen rats were randomly divided into three groups (6 rats in each group): (1) control group (without any treatment, labeled “Control” in FIG. 9); (2) free indomethacin group (2 mg/kg indomethacin per dose, labeled “Indomethacin (2 mg/kg) in FIG. 9); and (3) indomethacin sustained release composition group (2 mg/kg indomethacin per dose; labeled “Indomethacin-BioSeizer (2 mg/kg) in FIG. 9). The rats in each group were given no treatment (control group), daily subcutaneous injection around the arthritis joints of free indomethacin or indomethacin sustained release composition, from day 19 to day 23."}, "[4]": {"test_system": "collagen-induced arthritis", "from_the_text": "as §1"}, "[5]": {"test_system": "collagen-induced arthritis", "assay": "Collagen-induced arthritis model, etanercept sustained release composition (Example 8)", "format": "in vivo, Lewis rats"}, "[6]": {"conditions": "day 30, doses on day 23 and day 26"}}, "note": "Read-outs that look alike come from different tables or passages of the source.", "data": [{"compound": "dexamethasone sodium phosphate [free DSP]", "values": [{"measurement": "paw swelling thickness, both paws", "setting": "[1]; day 23, volume normalized with body weight", "result": "around 7.5 ml/kg"}, {"measurement": "clinical visual arthritis score", "setting": "[1]; day 26, single IA injection on day 19", "result": 4.5}, {"measurement": "clinical visual arthritis score, average", "setting": "[1]; prior to the IA injection (day 19), sum of both hind paws, maximum 8", "result": 4.0}, {"measurement": "day on which both paws became swollen again", "setting": "[1]; single IA injection on day 19", "result": 23, "unit": "days"}, {"measurement": "clinical visual arthritis score, lowest recorded", "setting": "[2]; day 30", "result": 3}, {"measurement": "day on which paws were swollen again / first sign of paw swelling", "setting": "[2]", "result": 31, "unit": "days"}, {"measurement": "day on which relapsed arthritis signs became severe", "setting": "[2]", "result": 33, "unit": "days"}]}, {"compound": "COc1ccc2c(c1)c(CC(=O)O)c(C)n2C(=O)c1ccc(Cl)cc1", "note": "[free indomethacin, Indomethacin sodium]", "values": [{"measurement": "average arthritis score before treatment", "setting": "[3]; before the first dose on day 19", "result": 7.4}, {"measurement": "average arthritis score", "setting": "[3]; day 20, 2 mg/kg indomethacin per dose, daily from day 19 to day 23", "result": 5}, {"measurement": "arthritis score", "setting": "[3]; day 25, after termination of treatment on day 23", "result": 8}, {"measurement": "time after termination of treatment until arthritis signs returned / amelioration continued", "setting": "[3]; treatment day 19 to day 23", "result": 2, "unit": "days"}]}, {"compound": "CN(Cc1cnc2nc(N)nc(N)c2n1)c1ccc(C(=O)N[C@@H](CCC(=O)[O-])C(=O)[O-])cc1.[Na+].[Na+]", "note": "[free methotrexate, methotrexate sodium]", "values": [{"measurement": "average arthritis score before treatment", "setting": "[4]; before the first dose on day 23", "result": 3.7}, {"measurement": "average arthritis score", "setting": "[4]; day 26, 1 mg/kg methotrexate per dose on day 23 and day 26", "result": 1.4}, {"measurement": "arthritis score", "setting": "[4]; [6]", "result": 3.5}, {"measurement": "time after termination of treatment until arthritis signs returned / amelioration continued", "setting": "[4]; doses on day 23 and day 26", "result": 4, "unit": "days"}]}, {"compound": "etanercept [free etanercept]", "values": [{"measurement": "average arthritis score", "setting": "[5]; day 26, 50 mg/kg etanercept per dose on day 23 and day 26", "result": 2.4}, {"measurement": "arthritis score", "setting": "[5]; [6]", "result": 4}, {"measurement": "time after termination of treatment until arthritis relapsed / amelioration continued", "setting": "[5]; doses on day 23 and day 26", "result": 3, "unit": "days"}]}]}
